Like-named read-outs stand apart in the source and are kept apart here.
Assays:
[1] = target: T1, cytochrome bc1 complex (Candida albicans, UniProt A0A1D8PJX3+P0C8L0); assay: cytochrome bc1 activity, dose response (assay not described); assay type: cell-based
T1 construct: gene COB; native multi-subunit complex III; preparation and assay not given; with Cytochrome c1, heme protein, mitochondrial
T1 sequence (P0C8L0 1-387): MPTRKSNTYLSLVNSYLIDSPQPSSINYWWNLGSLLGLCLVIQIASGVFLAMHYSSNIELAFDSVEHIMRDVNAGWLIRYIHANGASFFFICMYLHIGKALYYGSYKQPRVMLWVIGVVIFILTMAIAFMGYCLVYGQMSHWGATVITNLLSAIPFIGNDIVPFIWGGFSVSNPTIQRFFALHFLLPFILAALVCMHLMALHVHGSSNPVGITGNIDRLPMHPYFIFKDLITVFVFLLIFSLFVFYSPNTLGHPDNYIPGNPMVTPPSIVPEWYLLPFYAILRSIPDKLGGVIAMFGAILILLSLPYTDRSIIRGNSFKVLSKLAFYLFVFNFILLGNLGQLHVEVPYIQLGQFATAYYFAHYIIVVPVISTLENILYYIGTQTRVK
T1 sequence (A0A1D8PJX3 30-213): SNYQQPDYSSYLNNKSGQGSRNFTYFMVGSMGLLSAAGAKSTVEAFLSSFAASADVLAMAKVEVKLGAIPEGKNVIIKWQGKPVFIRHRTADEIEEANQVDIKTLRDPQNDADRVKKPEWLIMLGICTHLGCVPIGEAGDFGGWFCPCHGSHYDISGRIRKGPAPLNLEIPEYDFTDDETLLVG
T1 sequence (A0A1D8PHA3 43-288 partner): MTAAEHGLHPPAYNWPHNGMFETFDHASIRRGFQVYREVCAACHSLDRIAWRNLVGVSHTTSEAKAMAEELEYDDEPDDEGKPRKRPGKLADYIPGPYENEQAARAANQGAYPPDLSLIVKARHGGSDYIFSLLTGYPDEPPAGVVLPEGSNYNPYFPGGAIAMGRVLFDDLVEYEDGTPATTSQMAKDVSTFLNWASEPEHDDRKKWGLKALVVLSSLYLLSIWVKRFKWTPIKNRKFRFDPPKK
Description: cytochrome bc1 activity, dose response (assay not described) on cytochrome bc1 complex

[2] = target: T2, C. albicans Aox2 (rAox2) (Candida albicans, UniProt Q9UV71); assay: NADH oxidation at […] nm, E. coli membranes; assay type: biochemical
T2 sequence (Q9UV71 1-365): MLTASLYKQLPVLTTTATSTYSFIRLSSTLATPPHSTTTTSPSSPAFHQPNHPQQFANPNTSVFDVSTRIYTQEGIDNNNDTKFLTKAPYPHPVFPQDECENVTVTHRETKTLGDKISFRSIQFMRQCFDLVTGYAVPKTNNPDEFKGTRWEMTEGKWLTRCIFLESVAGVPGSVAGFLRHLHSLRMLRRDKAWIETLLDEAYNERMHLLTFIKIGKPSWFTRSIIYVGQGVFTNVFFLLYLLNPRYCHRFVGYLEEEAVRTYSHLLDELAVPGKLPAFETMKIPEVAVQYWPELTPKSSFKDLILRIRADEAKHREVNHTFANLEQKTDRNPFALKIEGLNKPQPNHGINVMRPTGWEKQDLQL

Row | Compound | IC50 [1] [µM] | IC50 ([2]; NADH, 65 mM MOPS pH 7.5, 1 mM KCN, 10 mM GMP, 10 min preincubation) [µM] | IC50 [2] [µM]
1 | Cc1c(Br)c(O)c(CCCCCCCCCCCC[P+](c2ccccc2)(c2ccccc2)c2ccccc2)c(O)c1C=O [ALTOX094, (12-(3-Bromo-5-formyl-2,6-dihydroxy-4-methylphenyl)dodecyl)triphenylphosphonium bromide] | 9.1 ± 1.2 | 15 ± 1 | 
2 | Cc1c(Br)c(O)c(CCCCCCCC[P+](c2ccccc2)(c2ccccc2)c2ccccc2)c(O)c1C=O [ALTOX102, (8-(3-Bromo-5-formyl-2,6-dihydroxy-4-methylphenyl)octyl)triphenylphosphonium bromide] | 5.8 ± 1.4 |  | 11.1 ± 1
3 | CC(C)=CCC/C(C)=C/Cc1c(O)c(Cl)c(C)c(C=O)c1O [Colletochlorin B] | 1.1 ± 0.1 |  | 0.0073 ± 0.0024
4 | CC(C)=CCC/C(C)=C/Cc1c(O)c(Br)c(C)c(C=O)c1O [ISSF31, (E)-3-Bromo-5-(3,7-dimethylocta-2,6-dien-1-yl)-4,6-dihydroxy-2-methylbenzaldehyde] | 1.2 ± 0.6 |  | 0.0211 ± 0.008

Reference: PMC11832467, “Novel mitochondrial-targeted alkyl chains act as fungal specific inhibitors of C. neoformans” (Frontiers in Microbiology, 2025)
